This assay deals with Staphylococcus aureus, Escherichia coli and Pseudomonas aeruginosa. The experiment in a line: preservative efficacy test, judgment of immediate effectiveness over all microbial species. It counts as cell-based. The procedure: As the test microorganism, Staphylococcus aureus (ATCC 6538), Escherichia coli (ATCC 8739) and Pseudomonas aeruginosa (ATCC 9027) were used. Each test microorganism was inoculated on the surface of a slant agar medium and precultured. The preculture was conducted using a soybean casein digest agar medium at 30-35° C. for 18-24 hr.
An emulsion composition to be subjected to the test was used as a sample, and the sample was dispensed to 5 sterilized stoppered test tubes by 10 mL each. A precultured test microorganism was added to the sample such that the cell count was 10^5-10^6 cells/mL to give a mixed sample. The test microorganism was singly added to the sample. The mixed sample was preserved at 20-25° C. with protection from light.
At 6 hr and 24 hr from the start of the preservation, 1 mL of each mixed sample was taken, and the solution was diluted with saline (9 mL). Similar dilution was performed 2-3 times and each diluted solution (1 mL) was dispensed to a sterilized petri dish, and then, 0.1 (w/v) % lecithin-0.7 (w/v) % polysorbate 80-added soybean casein digest agar medium was added to the bacteria, and the mixture was cultured at 30-35° C. for about 3 days. The colony forming units were measured, and the viable cell count per 1 mL of the mixed sample was calculated.
When the viable cell counts of all microbial species decreased by 3 log or more after 24 hr from the start of the test, an immediate effectiveness of preservative efficacy was judged to be present and the judgment was compatible. When further immediate effectiveness of preservative efficacy is demanded, it was judged to be present when the viable cell counts of all microbial species decreased by 3 log or more after 24 hr from the start of the test and the viable cell counts of all microbial species decreased by 2 log or more after 6 hr from the start of the test, and the judgment was compatible.

[1] abbreviates: added as preservative to difluprednate emulsion composition.

Where a name gives a salt, the structure may show the parent alone. Read-outs that look alike come from different tables or passages of the source.

With `O=S(=O)([O-])[O-].[Cu+2]` [copper sulfate], the “concentration at which excellent immediate effectiveness of preservative efficacy was obtained” value is reported as “not less than 0.0005 (w/v) %”.
For `Oc1cccc2cccnc12` [oxyquinoline sulfate], the “immediate effectiveness of preservative efficacy” value was “not found”.
With `O=[N+]([O-])[O-].[Ag+]` [silver nitrate], the “concentration at which further (excellent) immediate effectiveness was found” value (as silver ion, 6 hr and 24 hr criteria, in difluprednate emulsion) is given as “not less than 0.005 (w/v) %”. Moreover, the “concentration at which immediate effectiveness of preservative efficacy was found” value (as silver ion, 24 hr criterion, in difluprednate emulsion) was “not less than 0.0005 (w/v) %”.
On to `C/C=C/C=C/C(=O)O` [sorbic acid], for which the “immediate effectiveness of preservative efficacy” value under setting [1] is reported as “not found”.
The same measure, in the same setting: in the case of benzalkonium chloride it was “not found”.

Source of the values: US20150366879A1, “DIFLUPREDNATE EMULSION COMPOSITION CONTAINING ANTIMICROBIAL METAL” (SENJU PHARMACEUTICAL CO., LTD., priority 2013, published 2015).
